Results: patent US20110039721A1, “METHOD FOR PREDICTION ABOUT CARCINOGENICITY OF SUBSTANCE IN RODENT” (Chemicals Evaluation and Research Institute, priority 2007, published 2011)

Key:
[1] = test system: mRNA expressed from the genes (A) to (D) in rat liver; assay: Behavior of genes (mRNA expression level, oligo-DNA microarray) in rat liver after 28-day oral administration; format: in vivo; conditions: mRNA vs vehicle control group
Procedure, shortened: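 Male F344 SPF rats, 5 weeks old, four per group, dosed by oral gavage once daily for 28 days with test chemical or matched-volume solvent. Liver total RNA profiled on oligo-DNA microarray. Change ≥1.5-fold or ≤1/1.5 versus vehicle counted as significant if its direction matched that seen with other carcinogens.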

liver = conditions: classification of the substance (Cr+/Cr−); cited from earlier work
rodent = conditions: classification of the substance (C+/C−); cited from earlier work
[2] = classification of the substance (M+/M−); cited from earlier work
[3] = gene group (A), Unigene No. Rn.167075
[4] = gene group (C), Unigene No. Rn.120914

## COc1ccc(O)c(C(C)(C)C)c1 [TS023, Butylated hydroxyanisole]
[1]; gene group (A), Unigene No. Rn.144554
  Behavior of gene caused by administration of chemical substance, Gene No. 4846: −
[1]; [3]
  Behavior of gene caused by administration of chemical substance, Gene No. 2026: −
  Behavior of gene caused by administration of chemical substance, Gene No. 4218: −
[1]; gene group (A), Unigene No. Rn.5834
  Behavior of gene caused by administration of chemical substance, Gene No. 6182: −
[1]; gene group (A), Unigene No. Rn.9836
  Behavior of gene caused by administration of chemical substance, Gene No. 5600: −
[1]; gene group (B), Unigene No. Rn.1430
  Behavior of gene caused by administration of chemical substance, Gene No. 1494: −
[1]; gene group (B), Unigene No. Rn.19329
  Behavior of gene caused by administration of chemical substance, Gene No. 2045: −
[1]; gene group (B), Unigene No. Rn.21240
  Behavior of gene caused by administration of chemical substance, Gene No. 2203: +
[1]; gene group (C), Unigene No. Rn.106184
  Behavior of gene caused by administration of chemical substance, Gene No. 533: −
[1]; gene group (C), Unigene No. Rn.108075
  Behavior of gene caused by administration of chemical substance, Gene No. 725: +
[1]; gene group (C), Unigene No. Rn.11766
  Behavior of gene caused by administration of chemical substance, Gene No. 1163: +
[1]; gene group (C), Unigene No. Rn.118529
  Behavior of gene caused by administration of chemical substance, Gene No. 4973: +
[1]; gene group (C), Unigene No. Rn.119024
  Behavior of gene caused by administration of chemical substance, Gene No. 4095: +
[1]; [4]
  Behavior of gene caused by administration of chemical substance, Gene No. 1334: −
  Behavior of gene caused by administration of chemical substance, Gene No. 6620: −
[1]; gene group (C), Unigene No. Rn.123063
  Behavior of gene caused by administration of chemical substance, Gene No. 6303: −
[1]; gene group (C), Unigene No. Rn.143213
  Behavior of gene caused by administration of chemical substance, Gene No. 5878: −
[1]; gene group (C), Unigene No. Rn.144946
  Behavior of gene caused by administration of chemical substance, Gene No. 1131: −
[1]; gene group (C), Unigene No. Rn.14744
  Behavior of gene caused by administration of chemical substance, Gene No. 1562: −
[1]; gene group (C), Unigene No. Rn.1647
  Behavior of gene caused by administration of chemical substance, Gene No. 1741: −
[1]; gene group (C), Unigene No. Rn.164817
  Behavior of gene caused by administration of chemical substance, Gene No. 893: −
[1]; gene group (C), Unigene No. Rn.167685
  Behavior of gene caused by administration of chemical substance, Gene No. 6026: −
[1]; gene group (C), Unigene No. Rn.185941
  Behavior of gene caused by administration of chemical substance, Gene No. 154: +
[1]; gene group (C), Unigene No. Rn.18728
  Behavior of gene caused by administration of chemical substance, Gene No. 1993: −
[1]; gene group (C), Unigene No. Rn.201760
  Behavior of gene caused by administration of chemical substance, Gene No. 813: −
[1]; gene group (C), Unigene No. Rn.23969
  Behavior of gene caused by administration of chemical substance, Gene No. 2494: −
[1]; gene group (C), Unigene No. Rn.24561
  Behavior of gene caused by administration of chemical substance, Gene No. 2546: −
[1]; gene group (C), Unigene No. Rn.43232
  Behavior of gene caused by administration of chemical substance, Gene No. 3776: −
[1]; gene group (C), Unigene No. Rn.4620
  Behavior of gene caused by administration of chemical substance, Gene No. 3929: −
[1]; gene group (C), Unigene No. Rn.9757
  Behavior of gene caused by administration of chemical substance, Gene No. 1119: −
[1]; gene group (C), Unigene No. Rn.9779
  Behavior of gene caused by administration of chemical substance, Gene No. 6742: −
[1]; gene group (C), Unigene No. Rn.9862
  Behavior of gene caused by administration of chemical substance, Gene No. 5634: −
[1]; gene group (D), Unigene No. Rn.9939
  Behavior of gene caused by administration of chemical substance, Gene No. 5726: −
liver
  Liver carcinogenicity: Cr−
rodent
  Carcinogenicity: C+
[2]
  Mutagenicity by Ames test: M−
